Source: PubChem BioAssay (NCI)
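Grown in 96-well plates, cells were treated for 48 hours with each compound at five concentrations. Insufficient inhibition: endpoint recorded as highest concentration tested. The concentration for 50% growth inhibition is given as GI50. TGI marks complete inhibition of growth.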

Tests used:
Assay in all cases: NCI anticancer screen, dose series, 48 h
NCI-H522 lung = system: NCI-H522 lung
RXF 393 renal = system: RXF 393 renal
HOP-92 NSCLC = system: HOP-92 NSCLC
HCC-2998 colon = system: HCC-2998 colon
M14 melanoma = system: M14 melanoma
SNB-19 CNS = system: SNB-19 CNS
HCT-116 colon = system: HCT-116 colon
K-562 leukemia = system: K-562 leukemia

| SMILES | GI50 (NCI-H522 lung) [µM] | TGI (NCI-H522 lung) [µM] | GI50 (RXF 393 renal) [µM] | TGI (RXF 393 renal) [µM] | GI50 (HOP-92 NSCLC) [µM] | TGI (HOP-92 NSCLC) [µM] | GI50 (HCC-2998 colon) [µM] | TGI (HCC-2998 colon) [µM] | GI50 (M14 melanoma) [µM] | TGI (M14 melanoma) [µM] | GI50 (SNB-19 CNS) [µM] | TGI (SNB-19 CNS) [µM] | GI50 (HCT-116 colon) [µM] | TGI (HCT-116 colon) [µM] | GI50 (K-562 leukemia) [µM] | TGI (K-562 leukemia) [µM] |
| --- | --- | --- | --- | --- | --- | --- | --- | --- | --- | --- | --- | --- | --- | --- | --- | --- |
| COCc1cc(C(=O)Nc2cc([C@H]3CC[C@@H](OC(=O)NC(C)C)C3)[nH]n2)n(C)n1 | 16.2 | 47.2 | 2.93 | 9.11 | 8.03 | 36.6 | 5.39 | 48.2 | 12.2 | 40.5 | 12.7 | > 100 | 2.61 | 43 | 12.1 | > 100 |
| O=C(c1ccccc1)C1OC1c1ccc([N+](=O)[O-])cc1 (centres undefined) | 2.13 | 7.11 | 6.38 | 44.8 |  |  | 11 | 26.1 | 2.98 | 12.9 | 26.2 | > 100 | 3.17 | 12.6 |  |  |
| COc1cc(NCCCN=C(N)NC(N)=NC(C)C)c2ncccc2c1 | 2.72 | 9.61 | 22.8 | > 91.2 | 2.54 | 26.5 | 3.29 | 22.1 | 27.4 | > 83.1 | 11 | 64.4 | 3.31 | 30.3 | 7.56 | > 95.1 |
| C[C@@]12CCC[C@@](C)(C(=O)O)C1CC[C@]13C[C@@](O)(CO)[C@](O)(CCC12)C3 (some centres undefined) | > 100 | > 100 | > 100 | > 100 |  |  | > 100 | > 100 | > 100 | > 100 | > 100 | > 100 | > 100 | > 100 | > 100 | > 100 |
| CN(Cc1ccccc1)c1ccc(CO)c(Cl)c1 | 29 | > 100 | 13.1 | > 60.9 | 3.9 | 37.4 | 13 | 51.9 | 29 | > 100 | > 84.3 | > 100 | 0.533 | 15.1 | 9.81 | > 100 |
| O=C1C=CC(=Nc2cc(Br)c(O)c(Br)c2)C=C1 | 3.96 | 28.8 | 12.5 | 63.8 | 39.6 | > 100 | 17.5 | 34.6 | 23.9 | > 100 | 44.2 | > 100 | 11.5 | 26.3 | 5.83 | > 100 |
| O=C(Nc1ccc(Cl)c(Cl)c1)Nc1c(Oc2ccc(Cl)c(Cl)c2)ccc(Cl)c1S(=O)(=O)O |  |  | 1.92 | 5.64 |  |  | 2.11 | > 100 | 1.09 | > 100 | 3.42 | > 100 | 1.32 | > 100 | 0.516 | > 100 |
| COc1ccc2c(=O)cc(C(Cl)(Cl)Cl)oc2c1 | 0.228 | 0.683 | 0.676 | 20.4 | 0.361 | 23.3 | 0.4 | 11.3 |  |  | 3.77 | 48.1 | 0.299 | 14.3 | 0.0525 | > 100 |
| COc1ccc2ccccc2c1C1NC(=O)c2ccccc2N1 (centres undefined) |  | > 25.6 |  | > 23.6 |  | > 80.6 |  | 5.92 |  | 10.2 |  | > 100 |  | 13.8 |  |  |
| COc1c2ccoc2c(OC)c2oc(=O)ccc12 |  | > 100 |  | > 100 |  |  |  | > 100 |  | > 100 |  | > 100 |  | > 100 |  | > 100 |
| C#Cc1c(/C=C/C(=O)OCC)ccc2ccccc12 | 13.4 | 31.1 | 22.6 | 69.7 |  |  | 27.4 | > 100 | 18.9 | 46 | 36.8 | > 100 | 26.2 | 91.6 | 6.98 | 41.7 |
| CO/N=C(\C)c1ccc(Nc2cc(-c3ccccc3)nc3ccc(OC)cc23)cc1 | 4.4 | > 100 |  |  | 2.14 | 6.77 | 3.16 | 15.9 | 2.35 | 4.77 | 5.97 | > 100 | 1.76 | 3.77 | 5.42 | > 100 |
| C/C1=C/C(=O)O[C@@H]2C[C@@H](CC[C@H](C)/C=C\C=C\CC1)O[C@@](O)([C@@H]1CSC(=O)N1)C2 |  |  |  | 0.752 |  | 0.356 |  | > 10 |  | 3.75 |  | > 7.89 |  | > 10 |  | > 10 |
| CC(C)(C)c1cc(-n2c(-c3ccc(Cl)cc3)nc3cc(C(=O)Nc4ccc(Cl)cc4)ccc32)n[nH]1 | 3.9 | 94.8 | 8.57 | 63.6 | 1.65 | 6.51 |  |  |  |  | 4.1 | > 100 | 3.84 | > 100 |  |  |
| O=Nc1ccc(NO)c2ccccc12 | 13.2 | 27 | 11.8 | 24.2 |  |  | 17.4 | 31.7 | 16.5 | 31.3 | 15.1 | 28.5 | 3.15 | 12.7 | 16.1 | 44.6 |
| NCC1OC(n2cnc3c(N)ncnc32)CC1O (centres undefined) |  | > 100 |  | > 100 |  | > 100 |  |  |  | > 100 |  | > 100 |  | > 100 |  | > 100 |
| CC1CCCC(C(O)CC2CC(=O)NC(=O)C2)C1O (centres undefined) |  |  |  | > 100 |  | > 100 |  | > 100 |  | > 100 |  | > 100 |  | > 100 |  | > 100 |
| CCN(CC)c1ccc(C(O)C2=CC(=O)c3ccccc3C2=O)cc1 (centres undefined) | 1.79 | 4.19 |  |  | 0.21 | 0.942 | 1.92 | 3.43 | 2.1 | 4.57 |  |  | 1.76 | 3.14 | 0.416 |  |
